Numbered stars: 1 amine (or outer) side, 2 acyl side, 3 side chain; on linkers, the order of the positions; unused ones are H or OH. Bridge positions count the residues as written; N and C are the ends. Square brackets hold non-standard residues; d marks the D form. Peptide text beside a SMILES is read from it. * marks the point of attachment. ξ: configuration not given here. Phe(3-CF3) = N[C@@H](Cc1cccc(C(F)(F)F)c1)C(=O)O; Ala(morpholin-4-yl) = N[C@@H](CN1CCOCC1)C(=O)O; Phe(3-COOH) = N[C@@H](Cc1cccc(C(=O)O)c1)C(=O)O; Phe(4-COOH) = N[C@@H](Cc1ccc(C(=O)O)cc1)C(=O)O; Trp(7-Me) = Cc1cccc2c(C[C@H](N)C(=O)O)c[nH]c12; X23 = O=C([C@H](Cc1cc2ccccc2cn1)N[*:1])[*:2]; Bip = N[C@@H](Cc1ccc(-c2ccccc2)cc1)C(=O)O; Phe(3-Me) = Cc1cccc(C[C@H](N)C(=O)O)c1; d1Nal = N[C@H](Cc1cccc2ccccc12)C(=O)O; Val(3-OH) = CC(C)(O)[C@H](N)C(=O)O; d(hPhe) = N[C@H](CCc1ccccc1)C(=O)O; 4Pal = N[C@@H](Cc1ccncc1)C(=O)O; Cha = N[C@@H](CC1CCCCC1)C(=O)O; Cit = NC(=O)NCCC[C@H](N)C(=O)O; Ile(3ξ) = CCC(C)[C@H](N)C(=O)O; Thr(3ξ) = CC(O)[C@H](N)C(=O)O; Hpra = C#CCC[C@H](N)C(=O)O; Carboxymethyl = O=C(O)C*; NMeA = CN[C@@H](C)C(=O)O; Nle = CCCC[C@H](N)C(=O)O; Orn = NCCC[C@H](N)C(=O)O; Dab = NCC[C@H](N)C(=O)O; Dap = NC[C@H](N)C(=O)O
Each molecule was assayed against T1, PE-labeled human PD-L1-Ig binding to Jurkat cell line over-expressing human PD-1 (Jurkat-PD-1) (Homo sapiens, UniProt Q15116) (assay: Jurkat-PD-1 Cell Binding High-Content Screening Assay (CBA): Method 1). Conditions: Jurkat HPDL1 PD1 IC50 (uM) (Method 1), Jurkat-hPD-1 cells, PE-labeled PD-L1-Ig 20 nM final.
T1 construct: expressed in transfected cells; host or cells: Jurkat
T1 sequence (Q15116 25-288): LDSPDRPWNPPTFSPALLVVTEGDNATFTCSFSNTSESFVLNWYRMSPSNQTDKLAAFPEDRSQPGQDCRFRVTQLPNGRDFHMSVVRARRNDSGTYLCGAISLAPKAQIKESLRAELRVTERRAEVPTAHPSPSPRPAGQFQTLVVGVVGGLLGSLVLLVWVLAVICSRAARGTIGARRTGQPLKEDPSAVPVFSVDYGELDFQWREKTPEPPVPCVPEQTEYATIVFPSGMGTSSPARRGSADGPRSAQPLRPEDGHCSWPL

`CC(C)C[C@@H]1NC(=O)[C@H](CCN)NC(=O)[C@@H](CC(C)C)NC(=O)[C@H](C)N(C)C(=O)[C@H](CCCNC(=N)N)NC(=O)[C@H](Cc2ccc(-c3ccccc3)cc2)NC(=O)[C@H](C(C)C)NC(=O)[C@H](Cc2c[nH]c3ccccc23)NC(=O)[C@H](CC(=O)O)NC(=O)[C@H](Cc2ccc(O)cc2)NC(=O)[C@H](Cc2ccccc2)NC(=O)CSC[C@@H](C(=O)N[C@@H](C)C(N)=O)NC(=O)[C@H](CO)NC(=O)[C@H](C(C)C)NC1=O` [Compound 1030] ({CH2CO}-FYDWV[Bip]R[NMeA][dL][Dab]LVSCA-NH2; thioether N-14) showed an IC50 of 0.03 µM.

Same assay, conditions: Jurkat-hPD-1 cells, PE-labeled PD-L1-Ig 20 nM final; read-out: Jurkat HPDL1 PD1 IC50 (uM) (Method 1)

`CC(C)C[C@@H]1NC(=O)[C@H](Cc2c[nH]c3ccccc23)NC(=O)[C@H](CC(=O)O)NC(=O)[C@H](Cc2ccc(O)cc2)NC(=O)[C@H](Cc2ccccc2)NC(=O)CSC[C@@H](C(=O)NCC(N)=O)NC(=O)[C@H](CO)NC(=O)[C@H](C(C)C)NC(=O)[C@H](CC(C)C)NC(=O)[C@H](CC(N)=O)NC(=O)[C@@H](Cc2cnc[nH]2)NC(=O)[C@H](C)N(C)C(=O)[C@H](C(C)C)NC(=O)[C@H](Cc2ccc(-c3ccccc3)cc2)NC1=O` [Compound 1797] ({CH2CO}-FYDWL[Bip]V[NMeA][dH]NLVSCG-NH2; thioether N-14) and `Cc1cccc2c(C[C@@H]3NC(=O)[C@H](CC(=O)O)NC(=O)[C@H](Cc4ccc(O)cc4)NC(=O)[C@H](Cc4ccccc4)NC(=O)CSC[C@@H](C(=O)N[C@@H](C)C(N)=O)NC(=O)[C@H](CO)NC(=O)[C@H](C(C)C)NC(=O)[C@H](CC(C)C)NC(=O)[C@H](CC(N)=O)NC(=O)[C@@H](C)NC(=O)[C@H](C)N(C)C(=O)[C@H](C(C)C)NC(=O)[C@H](Cc4ccc(-c5ccccc5)cc4)NC(=O)[C@H](CC(C)C)NC3=O)c[nH]c12` [Compound 1796] ({CH2CO}-FYD[Trp(7-Me)]L[Bip]V[NMeA][dA]NLVSCA-NH2; thioether N-14) are the same in IC50: 0.16 µM for the first, 0.16 µM for the second.

Going from `CC(C)C[C@@H]1NC(=O)[C@H](Cc2c[nH]c3ccccc23)NC(=O)[C@H](CC(=O)O)NC(=O)[C@H](Cc2cccc(C(=O)O)c2)NC(=O)[C@H](CN)NC(=O)CSC[C@@H](C(=O)NCC(N)=O)NC(=O)[C@H](CO)NC(=O)[C@H](C(C)C)NC(=O)[C@H](CC2CCCCC2)NC(=O)[C@H](CCN)NC(=O)[C@@H](CC(C)C)NC(=O)[C@H](C)N(C)C(=O)[C@H](C(C)C)NC(=O)[C@H](Cc2ccc(-c3ccccc3)cc2)NC1=O` [Compound 1877] ({CH2CO}-[Dap][Phe(3-COOH)]DWL[Bip]V[NMeA][dL][Dab][Cha]VSCG-NH2; thioether N-14) to `CCC(C)[C@@H]1NC(=O)[C@H](Cc2ccc(-c3ccccc3)cc2)NC(=O)[C@H](CC(C)C)NC(=O)[C@H](Cc2c[nH]c3ccccc23)NC(=O)[C@H](CC(=O)O)NC(=O)[C@H](Cc2ccc(C(=O)O)cc2)NC(=O)[C@H](Cc2ccc(OCC(=O)O)cc2)NC(=O)CSC[C@@H](C(=O)N[C@@H](CC(N)=O)C(N)=O)NC(=O)[C@H](CO)NC(=O)[C@H](C(C)C)NC(=O)[C@H](CC2CCCCC2)NC(=O)[C@H](CCN)NC(=O)[C@@H](CC(C)C)NC(=O)[C@H](C)N(C)C1=O` (stereo partly drawn) [Compound 1923] ({CH2CO}-Y(Carboxymethyl)[Phe(4-COOH)]DWL[Bip][Ile(3ξ)][NMeA][dL][Dab][Cha]VSCN-NH2; thioether N-14), the IC50 rises from 0.01 µM to 0.02 µM (2-fold).

Compared with `Cc1cccc(C[C@@H]2NC(=O)[C@H](CC(=O)O)NC(=O)[C@H](Cc3ccc(OCC(=O)O)cc3)NC(=O)[C@H](Cc3ccncc3)NC(=O)CSC[C@@H](C(=O)N[C@@H](CCN)C(N)=O)NC(=O)[C@H](CCC(N)=O)NC(=O)[C@H](C(C)(C)O)NC(=O)[C@H](CC3CCCCC3)NC(=O)[C@H](CCN)NC(=O)[C@@H](CC(C)C)NC(=O)[C@H](C)N(C)C(=O)[C@H](Cc3ccc(OCC(=O)O)cc3)NC(=O)[C@H](Cc3ccc(-c4ccccc4)cc3)NC(=O)[C@H](Cc3ccc(OCC(=O)O)cc3)NC2=O)c1` [Compound 2192] ({CH2CO}-[4Pal]Y(Carboxymethyl)D[Phe(3-Me)]Y(Carboxymethyl)[Bip]Y(Carboxymethyl)[NMeA][dL][Dab][Cha][Val(3-OH)]QC[Dab]-NH2; thioether N-14), `C#CCC[C@H](NC(=O)[C@H](CCCN)NC(=O)[C@@H]1CSCC(=O)N[C@@H](Cc2ccncc2)C(=O)N[C@@H](Cc2ccc(OCC(=O)O)cc2)C(=O)N[C@@H](CC(=O)O)C(=O)N[C@@H](Cc2cccc(C)c2)C(=O)N[C@@H](C(C)C)C(=O)N[C@@H](Cc2ccc(-c3ccccc3)cc2)C(=O)N[C@@H](C(C)C)C(=O)N(C)[C@@H](C)C(=O)N[C@H](CC(C)C)C(=O)N[C@@H](CCN)C(=O)N[C@@H](CC2CCCCC2)C(=O)N[C@@H](C(C)C)C(=O)N[C@@H]([C@@H](C)O)C(=O)N1)C(N)=O` [Compound 1878] ({CH2CO}-[4Pal]Y(Carboxymethyl)D[Phe(3-Me)]V[Bip]V[NMeA][dL][Dab][Cha]VTC[Orn][Hpra]-NH2; thioether N-14) is 2-fold lower in IC50: 0.02 µM for the first, 0.01 µM for the second.

Compared with `CC(C)C[C@@H]1NC(=O)[C@H](CCCNC(=N)N)NC(=O)[C@@H](CCc2ccccc2)NC(=O)[C@H](C)N(C)C(=O)[C@H](CCCNC(=N)N)NC(=O)[C@H](Cc2ccc(-c3ccccc3)cc2)NC(=O)[C@H](C(C)C)NC(=O)[C@H](Cc2c[nH]c3ccccc23)NC(=O)[C@H](CC(=O)O)NC(=O)[C@H](Cc2ccc(O)cc2)NC(=O)[C@H](Cc2ccccc2)NC(=O)CSC[C@@H](C(=O)NCC(N)=O)NC(=O)[C@H](CO)NC(=O)[C@H](C(C)C)NC1=O` [Compound 1018] ({CH2CO}-FYDWV[Bip]R[NMeA][d(hPhe)]RLVSCG-NH2; thioether N-14), `CC(C)C[C@@H]1NC(=O)[C@H](CCCN)NC(=O)[C@@H](Cc2cccc3ccccc23)NC(=O)[C@H](C)N(C)C(=O)[C@H](CCCNC(=N)N)NC(=O)[C@H](Cc2ccc(-c3ccccc3)cc2)NC(=O)[C@H](C(C)C)NC(=O)[C@H](Cc2c[nH]c3ccccc23)NC(=O)[C@H](CC(=O)O)NC(=O)[C@H](Cc2ccc(O)cc2)NC(=O)[C@H](CC(N)=O)NC(=O)CSC[C@@H](C(=O)N[C@@H](C)C(N)=O)NC(=O)[C@H]([C@@H](C)O)NC(=O)[C@H](C(C)C)NC1=O` [Compound 1182] ({CH2CO}-NYDWV[Bip]R[NMeA][d1Nal][Orn]LVTCA-NH2; thioether N-14) is 2.5-fold higher in IC50: 0.12 µM for the first, 0.3 µM for the second.

Going from `CC(C)C[C@H]1NC(=O)[C@H](C)N(C)C(=O)[C@H](CCC(N)=O)NC(=O)[C@H](Cc2ccc(-c3ccccc3)cc2)NC(=O)[C@H](Cc2ccc(C(=O)O)cc2)NC(=O)[C@H](Cc2cccc(C(F)(F)F)c2)NC(=O)[C@H](CC(N)=O)NC(=O)[C@H](Cc2ccc(C(=O)O)cc2)NC(=O)[C@H](CN2CCOCC2)NC(=O)CSC[C@@H](C(=O)N[C@@H](CCN)C(N)=O)NC(=O)[C@H](CCCN)NC(=O)[C@H](C(C)C)NC(=O)[C@H](CC2CCCCC2)NC(=O)[C@H](CCN)NC1=O` [Example 2279] ({CH2CO}-[Ala(morpholin-4-yl)][Phe(4-COOH)]N[Phe(3-CF3)][Phe(4-COOH)][Bip]Q[NMeA][dL][Dab][Cha]V[Orn]C[Dab]-NH2; thioether N-14) to `Cc1cccc(C[C@@H]2NC(=O)[C@H](CC(=O)O)NC(=O)[C@H](Cc3ccc(C(=O)O)cc3)NC(=O)[C@H](Cc3ccc(OCC(=O)O)cc3)NC(=O)CSC[C@@H](C(N)=O)NC(=O)[C@H](CCCCN)NC(=O)[C@H](C(C)C)NC(=O)[C@H](CC(C)C)NC(=O)[C@H](CC(N)=O)NC(=O)[C@@H](CC(C)C)NC(=O)[C@H](C)N(C)C(=O)[C@H](C(C)C)NC(=O)[C@H](Cc3ccc(-c4ccccc4)cc3)NC(=O)[C@H](CC(C)C)NC2=O)c1` [Compound 2257] ({CH2CO}-Y(Carboxymethyl)[Phe(4-COOH)]D[Phe(3-Me)]L[Bip]V[NMeA][dL]NLVKC-NH2; thioether N-14), the IC50 falls from 0.11 µM to 0.06 µM (1.8-fold). The second is the more potent here.

Going from `CCC(C)[C@@H]1NC(=O)[C@H](Cc2ccc(-c3ccccc3)cc2)NC(=O)[C@H](C(C)C)NC(=O)[C@H](Cc2c[nH]c3ccccc23)NC(=O)[C@H](CC(=O)O)NC(=O)[C@H](Cc2ccc(O)cc2)NC(=O)[C@H](Cc2cc3ccccc3cn2)NC(=O)CSC[C@@H](C(=O)N[C@@H](C)C(N)=O)NC(=O)[C@H](C(C)O)NC(=O)[C@H](C(C)C)NC(=O)[C@H](CC2CCCCC2)NC(=O)[C@H](CCN)NC(=O)[C@@H](CC(C)C)NC(=O)[C@H](C)N(C)C1=O` (stereo partly drawn) [Compound 2044] ({CH2CO}-[X23]YDWV[Bip][Ile(3ξ)][NMeA][dL][Dab][Cha]V[Thr(3ξ)]CA-NH2; thioether N-14) to `CC(C)C[C@H]1NC(=O)[C@H](C)N(C)C(=O)[C@H](CCCNC(=N)N)NC(=O)[C@H](Cc2ccc(-c3ccccc3)cc2)NC(=O)[C@H](C(C)C)NC(=O)[C@H](Cc2c[nH]c3ccccc23)NC(=O)[C@H](CC(=O)O)NC(=O)[C@H](Cc2ccc(O)cc2)NC(=O)[C@H](CC(N)=O)NC(=O)CSC[C@@H](C(=O)N[C@@H](C)C(N)=O)NC(=O)[C@H]([C@@H](C)O)NC(=O)[C@H](C(C)C)NC(=O)[C@H](CC2CCCCC2)NC(=O)[C@H](CCN)NC1=O` [Compound 1284] ({CH2CO}-NYDWV[Bip]R[NMeA][dL][Dab][Cha]VTCA-NH2; thioether N-14), the IC50 falls from 0.02 µM to 0.01 µM (2-fold).

Going from `Cc1cccc(C[C@@H]2NC(=O)[C@H](CC(N)=O)NC(=O)CSC[C@@H](C(=O)N[C@@H](C)C(N)=O)NC(=O)[C@H]([C@@H](C)O)NC(=O)[C@H](C(C)C)NC(=O)[C@H](CC(C)C)NC(=O)[C@H](CCN)NC(=O)[C@@H](CC(C)C)NC(=O)[C@H](C)N(C)C(=O)[C@H](CCCNC(N)=O)NC(=O)[C@H](Cc3ccc(-c4ccccc4)cc3)NC(=O)[C@H](C(C)C)NC(=O)[C@H](Cc3c[nH]c4ccccc34)NC(=O)[C@H](CC(=O)O)NC2=O)c1` [Compound 1311] ({CH2CO}-N[Phe(3-Me)]DWV[Bip][Cit][NMeA][dL][Dab]LVTCA-NH2; thioether N-14) to `CCCC[C@@H]1NC(=O)[C@H](Cc2ccc(-c3ccccc3)cc2)NC(=O)[C@H](C(C)C)NC(=O)[C@H](Cc2c[nH]c3ccccc23)NC(=O)[C@H](CC(=O)O)NC(=O)[C@H](Cc2ccc(O)cc2)NC(=O)[C@H](CC(N)=O)NC(=O)CSC[C@@H](C(=O)N[C@@H](C)C(N)=O)NC(=O)[C@H]([C@@H](C)O)NC(=O)[C@H](C(C)C)NC(=O)[C@H](CC(C)C)NC(=O)[C@H](CCN)NC(=O)[C@@H](CC(C)C)NC(=O)[C@H](C)N(C)C1=O` [Compound 1271] ({CH2CO}-NYDWV[Bip][Nle][NMeA][dL][Dab]LVTCA-NH2; thioether N-14), the IC50 falls from 0.05 µM to 0.03 µM (1.7-fold).
